# Test results reported in US20220022457A1, “Microbicide Ammonium-Imidazolium Oligomers and Their Anti-Fungal Compositions” (AGENCY FOR SCIENCE, TECHNOLOGY AND RESEARCH, priority 2018, published 2022).
# Assays:
# [1] = tested on: Candida albicans (ATCC 10231, fungus); test: Minimum inhibitory concentration, microdilution assay; assay type: cell-based; settings: for MIC: ATCC10231; for MIC / MIC C.A.: Candida albicans ~10^6 CFU/ml, YMB, room temperature, no visible growth; for MIC50 C.A. (value in brackets): Candida albicans, concentration inhibiting 50% fungal growth
# Procedure: Staphylococcus aureus (ATCC 6538, Gram-positive), Escherichia coli (ATCC 8739, Gram-negative), Pseudomonas aeruginosa (ATCC 9027, Gram-negative), and Candida albicans (ATCC 10231, fungus) were used as representative microorganisms to challenge the antimicrobial functions of the oligomers. All bacteria and fungus were frozen at -80° C., and were grown overnight at 37° C. in Mueller Hinton Broth (MHB, BD Singapore) prior to experiments. Fungus was grown overnight at 22° C. in Yeast Mold Broth (YMB, BD Singapore). […] […] […] Medium solution containing microbial cells alone were used as control (100% microbial growth). The assay was performed in four replicates and the experiments were repeated at least two times.
# [2] = tested on: C. albicans; test: Checkerboard assay of oligomers with triazoles (FIC); assay type: cell-based; settings: Candida albicans; for FIC with Fluconazole: calculated from lowest concentration inhibiting at least 50% growth; for Alone MIC50 component A: oligomer alone
# Procedure: […]. […] A row and a column in which a serial dilution of each agent was present alone were also prepared for MIC test. Then each solution in the well plate was inoculated with 100 μL of logarithmically grown 10^6 cells/ml C. albicans cells in the 96-well plate. The plate also contained a column with C. albicans only as control (100% cell growth). The cells were incubated at room temperature for 24 h with constant shaking, after which cell growth (i.e. the O.D. at 600 nm) was monitored with a microplate reader (TECAN) Synergy between fluconazole and oligomers was determined by calculating the fractional inhibitory concentration index ([…] was calculated as follows: FIC=(MIColigomer A in combination/MIColigomer A alone)+(MICazole B in combination/MICazole B alone). […] The interaction of selected oligomers with other triazoles such as itraconazole and voriconazole was also investigated using the checkerboard dilution method. For comparison, the interaction of the selected oligomer with a non-triazole antifungal agent […] was also investigated.
# [3] = tested on: C. albicans; assay type: cell-based, Candida albicans
# [4] = tested on: Candida albicans; test: Killing efficacy of selected oligomers at 62 μg/ml (FIG. 1); assay type: cell-based; settings: for Fungistatic or fungicidal: survivors at 24 h compared with 0 h
# [5] = tested on: Staphylococcus aureus; test: Percentage growth after 24 hours with norfloxacin, IDPBX8 and 1:1 mixture (FIG. 2a); assay type: cell-based; settings: IDPBX8 combined with norfloxacin, 1:1 weight ratio
# [6] = tested on: mouse red blood cells (RBCs); test: Hemolysis study; assay type: cell-based; settings: oligomer concentration giving 10% hemolysis, 1 h, 37° C.
# Procedure: After 1 h incubation at 37° C., the mixture was centrifuged at 2000 rpm for 5 min. Aliquots (100 μl) of the supernatant were transferred to a 96-well plate. Hemolytic activity was determined as a function of hemoglobin release by measuring absorbance of the supernatant at 576 nm using a microplate reader. A control solution that contained only PBS was used as a reference for 0% hemolysis. Absorbance of red blood cells lysed with 0.5% Triton-X was taken as 100% hemolysis. The oligomer concentration which results in 10% hemolysis is indicated as HC10 in Table 1. The data were expressed as mean and S.D. of four replicates. % Hemolysis=[OD576 nm (polymer)−OD576 nm (PBS)]/[OD576 nm (Triton-X)−OD576 nm (PBS)]×100%
# [7] = tested on: C. albicans; test: Growth of C. albicans with IDPBX8, fluconazole or combination (OD600, colony counting; FIG. 2b, 2c)
# [8] = Critical micelle concentration; assay type: physicochemical
# [9] = tested on: Staphylococcus aureus (ATCC 6538, Gram-positive); test: Minimum inhibitory concentration, microdilution assay; assay type: cell-based; settings: lowest concentration with no visible growth; for MIC S.A.: 24 h
# Procedure: (§1) Staphylococcus aureus (ATCC 6538, Gram-positive), Escherichia coli (ATCC 8739, Gram-negative), Pseudomonas aeruginosa (ATCC 9027, Gram-negative), and Candida albicans (ATCC 10231, fungus) were used as representative microorganisms to challenge the antimicrobial functions of the oligomers. All bacteria and fungus were frozen at -80° C., and were grown overnight at 37° C. in Mueller Hinton Broth (MHB, BD Singapore) prior to experiments. Fungus was grown overnight at 22° C. in Yeast Mold Broth (YMB, BD Singapore). […] The plates were incubated at 37° C. for 24 h with constant shaking speed at 300 rpm. […] Medium solution containing microbial cells alone were used as control (100% microbial growth). The assay was performed in four replicates and the experiments were repeated at least two times.
# [10] = tested on: Escherichia coli (ATCC 8739, Gram-negative); test: as above; assay type: cell-based; settings: lowest concentration with no visible growth; for MIC E.C.: 24 h
# Procedure: as §1
# [11] = tested on: Pseudomonas aeruginosa (ATCC 9027, Gram-negative); test: as above; assay type: cell-based; settings: lowest concentration with no visible growth; for MIC P.A.: 24 h
# Procedure: as §1
# [12] = oligomer in combination with Fluconazole
# [13] = oligomer in combination with Itraconazole
# [14] = oligomer in combination with Voriconazole
# [15] = oligomer with Fluconazole (Table 2)
SMILES,MIC C.A. [1],MIC50 C.A. (value in brackets) [1],CMC [8],MIC S.A. [9],MIC E.C. [10],MIC P.A. [11],Fungistatic or fungicidal ([4]; 62 μg/ml),FIC with Fluconazole [2],HC10 [6],also measured
"OC(Cn1cncn1)(Cn1cncn1)c1ccc(F)cc1F [Fluconazole, fluconazole, reference compound]",–,–,–,–,–,–,fungistatic rather than fungicidal,–,–,"MIC [1]: 2 to 4 µg/mL; MIC50 ([2]; triazole alone, read-out: Alone MIC50 component B): 4 µg/mL; Alone MIC50 component B ([2]; triazole alone): 2 µg/mL; Combined MIC50 component B ([2]; triazole in combination with IDPBX8): 0.5 µg/mL; Combined MIC50 component B ([2]; triazole in combination with IDPPX8): 0.25 µg/mL; Combined MIC50 component B ([2]; triazole in combination with IIDPPBX8): 2 µg/mL; MIC increase by the 31th passage ([3]; grown at 1/4 MIC, 31th passage): 8 times of the original MIC; Number of surviving C. albicans after 24 h treatment compared with control ([4]; 62 μg/ml, 24 h): significantly less than the untreated control"
CCCCCCCC[n+]1ccn(Cc2ccc(C[N+]34CC[N+](C/C=C/C[N+]56CC[N+](Cc7ccc(Cn8cc[n+](CCCCCCCC)c8)cc7)(CC5)CC6)(CC3)CC4)cc2)c1.[Br-].[Br-].[Br-].[Br-].[Br-].[Br-] [IDPBX8],8 to 31 µg/mL,(2-8) μg/ml,1456 µg/mL,16 µg/mL,31 µg/mL,62 µg/mL,–,0.38,>2000 µg/mL,"Efficacy of combination versus single agents [5]: did not show improved efficacy; Interaction when applied together with voriconazole [2]: Synergy; Alone MIC50 component A [2]: 8 µg/mL; Combined MIC50 component A [2, 12]: 1 µg/mL; Combined MIC50 component A [2, 13]: 1 µg/mL; Combined MIC50 component A [2, 14]: 2 µg/mL; FIC [2, 15]: 0.38; FIC ([2]; oligomer with Itraconazole): 0.62; FIC ([2]; oligomer with Voriconazole): 0.31; Total concentration of the combination at which killing effect was observed [7]: 2 µg/mL; Activity of combination versus single agents ([7]; IDPBX8 combined with fluconazole, 1:1 weight ratio, 24 h): higher activity than each compound/medicine used alone; Resistance developed by C. albicans ([3]; 36 consecutive days of treatment): no significant resistance was developed; MICs over the entire 36 passages ([3]; grown at 1/4 MIC): relatively stable; Killing ([4]; 62 μg/ml, after 24 h treatment): 99%; Killing ([4]; 62 μg/ml, after 48 h): 99.99%; Killing kinetics ([4]; IDPBX8 compared with IIDPPBX8): kills faster"
CCCCCCCC[N+]12CC[N+](C/C=C/C[N+]34CC[N+](CCCCCCCC)(CC3)CC4)(CC1)CC2.[Br-].[Br-].[Br-].[Br-] [DDB8],125 µg/mL,(16) μg/ml,1552 µg/mL,4 µg/mL,8 µg/mL,125 µg/mL,fungistatic,0.25,>2000 µg/mL,–

# The next lines start with results.
MIC C.A. [1],MIC50 C.A. (value in brackets) [1],CMC [8],MIC S.A. [9],MIC E.C. [10],MIC P.A. [11],SMILES,Fungistatic or fungicidal ([4]; 62 μg/ml),FIC with Fluconazole [2],HC10 [6],also measured
62 µg/mL,(8-31) μg/ml,1552 µg/mL,8 µg/mL,62 µg/mL,500 µg/mL,CCCCCCCC[n+]1ccn(Cc2ccc(C[N+]34CC[N+](Cc5ccc(C[N+]67CC[N+](Cc8ccc(Cn9cc[n+](CCCCCCCC)c9)cc8)(CC6)CC7)cc5)(CC3)CC4)cc2)c1.[Br-].[Br-].[Br-].[Br-].[Br-].[Br-] [IDPPX8],fungistatic,0.25,>2000 µg/mL,"Interaction when applied together with voriconazole [2]: Synergy; Alone MIC50 component A [2]: 16 µg/mL; Combined MIC50 component A [2, 12]: 2 µg/mL; Combined MIC50 component A [2, 13]: 4 µg/mL; Combined MIC50 component A [2, 14]: 4 µg/mL; FIC [2, 15]: 0.19; FIC ([2]; oligomer with Itraconazole): 0.50; FIC ([2]; oligomer with Voriconazole): 0.30"
–,–,226 µg/mL,–,–,–,"CCCCCCCC[n+]1ccn(Cc2ccc(C[n+]3ccn(Cc4ccc(C[n+]5ccn(Cc6ccccc6Cn6cc[n+](Cc7ccc(Cn8cc[n+](Cc9ccc(Cn%10cc[n+](CCCCCCCC)c%10)cc9)c8)cc7)c6)c5)cc4)c3)cc2)c1 [IBN-C8, reference compound]",–,2.00,>2000 µg/mL,"MIC [1]: 16 µg/mL; MIC ([9]; ATCC6538, 24 h): 4 µg/mL; MIC ([10]; ATCC8739, 24 h): 8 µg/mL; MIC ([11]; ATCC9027, 24 h): 16 µg/mL"
62 µg/mL,(32) μg/ml,1667 µg/mL,8 µg/mL,16 µg/mL,250 µg/mL,CCCCCCCC[n+]1ccn(Cc2ccccc2C[N+]23CC[N+](Cc4ccccc4Cn4cc[n+](CCCCCCCC)c4)(CC2)CC3)c1.[Br-].[Br-].[Br-].[Br-] [IDIO8],–,0.25,>2000 µg/mL,–
125 µg/mL,(8) μg/ml,985 µg/mL,2 µg/mL,16 µg/mL,1000 µg/mL,CCCCCCCC[n+]1ccn(Cc2ccc(C[N+]34CC[N+](Cc5ccc(Cn6cc[n+](CCCCCCCC)c6)cc5)(CC3)CC4)cc2)c1.[Br-].[Br-].[Cl-].[Cl-] [IDIP8],–,0.25,>2000 µg/mL,–
